Source: ChEMBL document CHEMBL3217615, “Novel 3,5-bis(arylidiene)-4-piperidone based monocarbonyl analogs of curcumin: anticancer activity evaluation and mode of action study” (2014)

What was measured:
Format in all cases: functional
[1] = tested on: COLO 205; assay: Induction of apoptosis in human COLO205 cells assessed as caspase 9 activation at 10 uM by FLICA
[2] = tested on: IGROV-1; assay: Growth inhibition of human IGROV1 cells assessed as cell growth at 10^-6 M after 48 hrs by sulforhodamine B assay; settings: IGROV-1, 48 h, read-out: Activity
[3] = tested on: DU-145; assay: Growth inhibition of human DU145 cells assessed as cell growth at 10^-7 M after 48 hrs by sulforhodamine B assay; settings: DU-145, 48 h, read-out: Activity
[4] = Growth inhibition of human SF295 cells assessed as cell growth at 10^-8 M after 48 hrs by sulforhodamine B assay; settings: SF-295, 48 h; for growth at 0.01 µM: read-out: Activity; for TGI: read-out: pTGI (converted)
[5] = tested on: HCT-116; assay: Growth inhibition of human HCT116 cells assessed as cell growth at 10^-7 M after 48 hrs by sulforhodamine B assay; settings: HCT-116, 48 h, read-out: Activity
[6] = tested on: K562; assay: Growth inhibition of human K562 cells assessed as cell growth at 10^-7 M after 48 hrs by sulforhodamine B assay; settings: K562, 48 h, read-out: Activity
[7] = tested on: CCRF-CEM; assay: Growth inhibition of human CCRF-CEM cells assessed as cell growth at 10^-8 M after 48 hrs by sulforhodamine B assay; settings: for growth at 0.01 µM: read-out: Activity; for CC50: read-out: pLC50 (the source's name) (converted); for TGI: read-out: pTGI (converted)
[8] = tested on: NCI-H226; assay: Growth inhibition of human NCI-H226 cells assessed as cell growth at 10^-8 M after 48 hrs by sulforhodamine B assay; settings: NCI-H226, 48 h; for growth at 0.01 µM: read-out: Activity; for TGI: read-out: pTGI (converted)
[9] = tested on: COLO 205; assay: Induction of apoptosis in human COLO205 cells assessed as early apoptosis cells level at 10 uM after 24 hrs by Annexin V/propidium iodide staining-based fluorescence microscopy
[10] = tested on: MDA-MB-231; assay: Growth inhibition of human MDA-MB-231 cells assessed as cell growth at 10^-6 M after 48 hrs by sulforhodamine B assay; settings: MDA-MB-231, 48 h, read-out: Activity
[11] = tested on: MCF7; assay: Growth inhibition of human MCF7 cells assessed as cell growth at 10^-8 M after 48 hrs by sulforhodamine B assay; settings: MCF7, 48 h; for growth at 0.01 µM: read-out: Activity; for TGI: read-out: pTGI (converted)
[12] = Growth inhibition of human SF295 cells assessed as cell growth at 10^-7 M after 48 hrs by sulforhodamine B assay; settings: SF-295, 48 h, read-out: Activity
[13] = tested on: A549; assay: Growth inhibition of human A549/ATCC cells assessed as cell growth at 10^-4 M after 48 hrs by sulforhodamine B assay; settings: A549, 48 h, read-out: Activity
[14] = tested on: ACHN; assay: Growth inhibition of human ACHN cells after 48 hrs by sulforhodamine B assay; settings: for CC50: read-out: LC50 (the source's name)
[15] = Growth inhibition of human OVCAR3 cells assessed as cell growth at 10^-7 M after 48 hrs by sulforhodamine B assay; settings: OVCAR-3, 48 h, read-out: Activity
[16] = tested on: SNB-75; assay: Growth inhibition of human SNB75 cells after 48 hrs by sulforhodamine B assay; settings: SNB-75, 48 h; for CC50: read-out: LC50 (the source's name)
[17] = tested on: 786-0; assay: Growth inhibition of human 786-0 cells assessed as cell growth at 10^-6 M after 48 hrs by sulforhodamine B assay; settings: 786-0, 48 h, read-out: Activity
[18] = tested on: NCI-H522; assay: Growth inhibition of human NCI-H522 cells assessed as cell growth at 10^-8 M after 48 hrs by sulforhodamine B assay; settings: NCI-H522, 48 h; for growth at 0.01 µM: read-out: Activity; for CC50: read-out: pLC50 (the source's name) (converted); for TGI: read-out: pTGI (converted)
[19] = tested on: SK-MEL-5; assay: Growth inhibition of human SK-MEL-5 cells after 48 hrs by sulforhodamine B assay; settings: SK-MEL-5, 48 h; for CC50: read-out: LC50 (the source's name)
[20] = tested on: HOP-62; assay: Growth inhibition of human HOP62 cells after 48 hrs by sulforhodamine B assay; settings: HOP-62, 48 h; for CC50: read-out: LC50 (the source's name)
[21] = Growth inhibition of human NCI-ADR-RES cells assessed as cell growth at 10^-6 M after 48 hrs by sulforhodamine B assay; settings: read-out: Activity
[22] = tested on: SW-620; assay: Growth inhibition of human SW620 cells assessed as cell growth at 10^-6 M after 48 hrs by sulforhodamine B assay; settings: SW-620, 48 h, read-out: Activity
[23] = tested on: SR; assay: Growth inhibition of human SR cells assessed as cell growth at 10^-4 M after 48 hrs by sulforhodamine B assay; settings: read-out: Activity
[24] = Growth inhibition of human OVCAR4 cells assessed as cell growth at 10^-8 M after 48 hrs by sulforhodamine B assay; settings: OVCAR-4, 48 h; for growth at 0.01 µM: read-out: Activity; for TGI: read-out: pTGI
[25] = tested on: T47D; assay: Growth inhibition of human T47D cells assessed as cell growth at 10^-7 M after 48 hrs by sulforhodamine B assay; settings: read-out: Activity
[26] = tested on: K562; assay: Growth inhibition of human K562 cells assessed as cell growth at 10^-8 M after 48 hrs by sulforhodamine B assay; settings: K562, 48 h; for growth at 0.01 µM: read-out: Activity; for CC50: read-out: pLC50 (the source's name) (converted); for TGI: read-out: pTGI (converted)
[27] = tested on: NCI-H522; assay: Growth inhibition of human NCI-H522 cells assessed as cell growth at 10^-4 M after 48 hrs by sulforhodamine B assay; settings: NCI-H522, 48 h, read-out: Activity
[28] = tested on: MCF7; assay: Growth inhibition of human MCF7 cells assessed as cell growth at 10^-6 M after 48 hrs by sulforhodamine B assay; settings: MCF7, 48 h, read-out: Activity
[29] = Growth inhibition of human HCT15 cells assessed as cell growth at 10^-4 M after 48 hrs by sulforhodamine B assay; settings: HCT-15, 48 h, read-out: Activity
[30] = tested on: HL-60(TB); assay: Growth inhibition of human HL-60(TB) cells assessed as cell growth at 10^-4 M after 48 hrs by sulforhodamine B assay; settings: HL-60, 48 h, read-out: Activity
[31] = tested on: PC-3; assay: Growth inhibition of human PC3 cells assessed as cell growth at 10^-7 M after 48 hrs by sulforhodamine B assay; settings: PC-3, 48 h, read-out: Activity
[32] = tested on: MDA-MB-231; assay: Growth inhibition of human MDA-MB-231 cells assessed as cell growth at 10^-4 M after 48 hrs by sulforhodamine B assay; settings: MDA-MB-231, 48 h, read-out: Activity
[33] = tested on: COLO 205; assay: Growth inhibition of human COLO205 cells assessed as cell growth at 10^-4 M after 48 hrs by sulforhodamine B assay; settings: COLO 205, 48 h, read-out: Activity

Work on O=C1/C(=C/c2ccc(Cl)cc2Cl)CN(S(=O)(=O)c2ccccc2)C/C1=C\c1ccc(Cl)cc1Cl yielded an Activity [1] of 22%, a growth at 1 µM [2] of -30% and a growth at 0.1 µM [3] of 110%. The GI50 [4] was 0.347 µM, the LC50 [4] was > 100 µM and the growth at 0.01 µM [4] was 91%. It also gave a TGI [4] of 6.61 µM, a growth at 0.1 µM [5] of 95% and a growth at 0.1 µM [6] of 99%. For the same compound, the GI50 [7] was 0.288 µM, the growth at 0.01 µM [7] was 98% and the CC50 [7] was > 100 µM. It also gave a TGI [7] of 1 µM, a GI50 [8] of 1.05 µM and an LC50 [8] of 7.94 µM. For the same compound, the growth at 0.01 µM [8] was 92%, the TGI [8] was 2.88 µM and the Activity [9] was 52%. The growth at 1 µM [10] was 26%, the GI50 [11] was 0.302 µM and the LC50 [11] was > 100 µM. For the same compound, the growth at 0.01 µM [11] was 96%, the TGI [11] was 100 µM and the growth at 0.1 µM [12] was 93%. It also gave a growth at 100 µM [13] of -33%, a GI50 [14] of 0.874 µM and a TGI [14] of 4.56 µM. For the same compound, the CC50 [14] was > 100 µM, the growth at 0.1 µM [15] was 108% and the GI50 [16] was 0.432 µM. For the same compound, the TGI [16] was 7.29 µM, the CC50 [16] was > 100 µM and the growth at 1 µM [17] was -37%. The GI50 [18] was 0.851 µM, the growth at 0.01 µM [18] was 95% and the CC50 [18] was 9.77 µM. The TGI [18] was 3.02 µM, the TGI [19] was > 100 µM and the CC50 [19] was > 100 µM. The GI50 [20] was 0.385 µM, the TGI [20] was > 100 µM and the CC50 [20] was > 100 µM. The growth at 1 µM [21] was 54%, the growth at 1 µM [22] was 4% and the growth at 100 µM [23] was -21%. The GI50 [24] was 0.282 µM, the LC50 [24] was > 100 µM and the growth at 0.01 µM [24] was 102%. The TGI [24] was > 100 µM, the growth at 0.1 µM [25] was 96% and the GI50 [26] was 0.347 µM. The growth at 0.01 µM [26] was 102%, the CC50 [26] was > 100 µM and the TGI [26] was > 100 µM. It also gave a growth at 100 µM [27] of -56%, a growth at 1 µM [28] of 14% and a growth at 100 µM [29] of -36%. The growth at 100 µM [30] was -13%, the growth at 0.1 µM [31] was 93% and the growth at 100 µM [32] was -49%. The growth at 100 µM [33] was -25%.
Work on Cc1ccc(S(=O)(=O)N2C/C(=C\c3cc(F)cc(F)c3)C(=O)/C(=C/c3cc(F)cc(F)c3)C2)cc1 yielded an Activity [1] of 40.5%, a growth at 1 µM [2] of 18% and a growth at 0.1 µM [3] of 111%. It also gave a GI50 [4] of 0.468 µM, an LC50 [4] of 15.8 µM and a growth at 0.01 µM [4] of 92%. It also gave a TGI [4] of 2.51 µM, a growth at 0.1 µM [5] of 89% and a growth at 0.1 µM [6] of 44%. The GI50 [7] was 0.0741 µM, the growth at 0.01 µM [7] was 95% and the CC50 [7] was > 100 µM. For the same compound, the TGI [7] was 0.955 µM, the GI50 [8] was 8.71 µM and the LC50 [8] was > 100 µM. It also gave a growth at 0.01 µM [8] of 97%, a TGI [8] of 39.8 µM and an Activity [9] of 30%. It also gave a growth at 1 µM [10] of -11%, a GI50 [11] of 0.174 µM and an LC50 [11] of 6.92 µM. The growth at 0.01 µM [11] was 89%, the TGI [11] was 1.45 µM and the growth at 0.1 µM [12] was 92%. The growth at 100 µM [13] was -34%, the GI50 [14] was 0.246 µM and the TGI [14] was 0.622 µM. It also gave a CC50 [14] of 2.39 µM, a growth at 0.1 µM [15] of 112% and a GI50 [16] of 1.99 µM. For the same compound, the TGI [16] was 5.9 µM, the CC50 [16] was 26.2 µM and the growth at 1 µM [17] was 34%. The GI50 [18] was 0.316 µM, the growth at 0.01 µM [18] was 100% and the CC50 [18] was 3.89 µM. For the same compound, the TGI [18] was 0.955 µM, the GI50 [19] was 0.286 µM and the TGI [19] was 1.08 µM. The CC50 [19] was 3.6 µM, the GI50 [20] was 2.04 µM and the TGI [20] was 4.64 µM. For the same compound, the CC50 [20] was 11.9 µM, the growth at 1 µM [21] was 19% and the growth at 1 µM [22] was -45%. It also gave a growth at 100 µM [23] of -30%, a GI50 [24] of 0.437 µM and an LC50 [24] of 36.3 µM. The growth at 0.01 µM [24] was 100%, the TGI [24] was 5.25 µM and the growth at 0.1 µM [25] was 101%. For the same compound, the GI50 [26] was 0.0776 µM, the growth at 0.01 µM [26] was 94% and the CC50 [26] was > 100 µM. It also gave a TGI [26] of 1.38 µM, a growth at 100 µM [27] of -94% and a growth at 1 µM [28] of 12%. For the same compound, the growth at 100 µM [29] was -65%, the growth at 100 µM [30] was -23% and the growth at 0.1 µM [31] was 89%. For the same compound, the growth at 100 µM [32] was -82% and the growth at 100 µM [33] was -95%.
